Laboratory results as given in patent publication US7598382B2, “Aryl substituted imidazoquinolines” (Coley Pharmaceutical Group, Inc., priority 2002, dated 2009).

| SMILES | melting point |
| --- | --- |
| CCOCc1nc2c(N)nc3cc(-c4cccc(C(=O)N5CCOCC5)c4)ccc3c2n1CC1CCOCC1 (hydrate or solvate) [Example 477, {3-[4-Amino-2-ethoxymethyl-1-(tetrahydropyran-4-ylmethyl)-1H-imidazo[4,5-c]quinolin-7-yl]phenyl}morpholin-4-ylmethanone] | 125 to 128 °C |
| CCOCc1nc2c(N)nc3cc(-c4cccnc4)ccc3c2n1CC1CCOCC1 (hydrate or solvate) [Example 479, 2-Ethoxymethyl-7-(pyridin-3-yl)-1-(tetrahydropyran-4-ylmethyl)-1H-imidazo[4,5-c]quinolin-4-amine] | 116 to 121 °C |
| CCOCc1nc2c(N)nc3cc(-c4ccsc4)ccc3c2n1CC(C)C [Example 9, 2-Ethoxymethyl-1-isobutyl-7-(thiophen-3-yl)-1H-imidazo[4,5-c]quinolin-4-amine] | 187 to 189 °C |
| CCCCc1nc2c(N)nc3cc(-c4ccccc4)ccc3c2n1CCCS(C)(=O)=O [Example 10, 2-Butyl-1-(3-methanesulfonylpropyl)-7-phenyl-1H-imidazo[4,5-c]quinolin-4-amine] | 214 to 216 °C |
| CC(C)Cn1cnc2c(N)nc3ccc(-c4ccc(C(C)(C)C)cc4)cc3c21 [Example 11, 8-(4-tert-Butylphenyl)-1-isobutyl-1H-imidazo[4,5-c]quinolin-4-amine] | > 250 °C |
| CC(C)Cn1cnc2c(N)nc3ccc(-c4ccsc4)cc3c21 [Example 12, 1-Isobutyl-8-(thiophen-3-yl)-1H-imidazo[4,5-c]quinolin-4-amine] | 235 to 236 °C |
| COc1ccc(-c2ccc3nc(N)c4ncn(CC(C)C)c4c3c2)c(OC)c1 [Example 13, 8-(2,4-Dimethoxyphenyl)-1-isobutyl-1H-imidazo[4,5-c]quinolin-4-amine] | 223 to 227 °C |

Results, then the compound that gave them:

| melting point | SMILES |
| --- | --- |
| 190 to 192 °C | CCCc1nc2c(N)nc3cc(/C=C/c4cccnc4)ccc3c2n1CC(C)C (hydrate or solvate) [Example 446, (E)-1-(2-Methylpropyl)-2-propyl-7-[2-(pyridin-3-yl)vinyl]-1H-imidazo[4,5-c]quinolin-4-amine] |
| 229 to 230 °C | CCCCc1nc2c(N)nc3cc(-c4ccsc4)ccc3c2n1CC(C)C [Example 1, 2-Butyl-1-isobutyl-7-(thiophen-3-yl)-1H-imidazo[4,5-c]quinolin-4-amine] |
| > 250 °C | CCCCc1nc2c(N)nc3cc(-c4ccccc4)ccc3c2n1CC(C)C [Example 2, 2-Butyl-1-isobutyl-7-phenyl-1H-imidazo[4,5-c]quinolin-4-amine] |
| 187 to 189 °C | CCCCc1nc2c(N)nc3cc(-c4ccc(OC)cc4OC)ccc3c2n1CC(C)C [Example 3, 2-Butyl-7-(2,4-dimethoxyphenyl)-1-isobutyl-1H-imidazo[4,5-c]quinolin-4-amine] |
| 219 to 220 °C | CCCCc1nc2c(N)nc3cc(-c4ccc(C(C)(C)C)cc4)ccc3c2n1CC(C)C [Example 4, 2-Butyl-7-(4-tert-butylphenyl)-1-isobutyl-1H-imidazo[4,5-c]quinolin-4-amine] |
| 194 to 197 °C | CCCCc1nc2c(N)nc3cc(-c4ccc(OCCC)cc4)ccc3c2n1CC(C)C [Example 5, 2-Butyl-1-isobutyl-7-(4-propoxyphenyl)-1H-imidazo[4,5-c]quinolin-4-amine] |
| 174.5 to 176 °C | CCCCc1nc2c(N)nc3cc(-c4ccccc4OCCC)ccc3c2n1CC(C)C [Example 6, 2-Butyl-1-isobutyl-7-(2-propoxyphenyl)-1H-imidazo[4,5-c]quinolin-4-amine] |
| 215 to 216 °C | CCCCc1nc2c(N)nc3cc(/C=C/c4ccccc4)ccc3c2n1CC(C)C [Example 7, 2-Butyl-1-isobutyl-7-[(E)-2-phenylethenyl]-1H-imidazo[4,5-c]quinolin-4-amine] |
| 181 to 182 °C | CCCCc1nc2c(N)nc3cc(CCc4ccccc4)ccc3c2n1CC(C)C [Example 8, 2-Butyl-1-isobutyl-7-phenethyl-1H-imidazo[4,5-c]quinolin-4-amine] |
